Results reported in article PMC5218480 (PLoS ONE, 2017).

Test system: MV-4-11 cells
Test: Gene expression microarray analysis (Affymetrix PrimeView) and GSEA
Format: cell-based, human
Set-up: RFU PODN (11730768_x_at) / Fold change /veh PODN (11730768_x_at) / RFU LINC00158 (11744669_a_at) / Fold change /veh LINC00158 (11744669_a_at) / RFU DUSP10 (11751237_a_at) / Fold change /veh DUSP10 (11751237_a_at) / RFU ID3 (11757404_x_at) / Fold change /veh ID3 (11757404_x_at) / RFU PLEKHG5 (11737974_s_at) / Fold change /veh PLEKHG5 (11737974_s_at) / RFU LRRC4B (11730491_at) / Fold change /veh LRRC4B (11730491_at) / RFU GIMAP4 (11747438_a_at) / Fold change /veh GIMAP4 (11747438_a_at) / RFU KRT8 (11758183_x_at) / Fold change /veh KRT8 (11758183_x_at) / RFU CNN1 (11734310_a_at) / Fold change /veh CNN1 (11734310_a_at) / RFU VPS37D (11726825_at) / Fold change /veh VPS37D (11726825_at) / RFU C10orf10 (11716522_x_at) / Fold change /veh C10orf10 (11716522_x_at) / RFU KIR2DL2 /// KIR2DL4 /// KIR2DL5A /// KIR2DL5B /// KIR2DS1 /// KIR2DS2 /// KIR2DS3 /// KIR2DS4 /// KIR3DL3 /// KIR3DL3 /// KIR3DS1 (11738374_at) / Fold change /veh KIR2DL2 /// KIR2DL4 /// KIR2DL5A /// KIR2DL5B /// KIR2DS1 /// KIR2DS2 /// KIR2DS3 /// KIR2DS4 /// KIR3DL3 /// KIR3DL3 /// KIR3DS1 (11738374_at) / RFU C1QL1 (11718748_at) / Fold change /veh C1QL1 (11718748_at) / RFU TMPRSS4 (11747572_a_at) / Fold change /veh TMPRSS4 (11747572_a_at) / RFU HAMP (11756126_x_at) / Fold change /veh HAMP (11756126_x_at) / RFU RNFT2 (11725882_a_at) / Fold change /veh RNFT2 (11725882_a_at) / RFU NR4A2 (11747474_a_at) / Fold change /veh NR4A2 (11747474_a_at) / RFU ABCC12 (11746883_a_at) / Fold change /veh ABCC12 (11746883_a_at) / RFU TMEM136 (11760407_x_at) / Fold change /veh TMEM136 (11760407_x_at) / RFU CLDN22 /// WWC2 (11732394_at) / Fold change /veh CLDN22 /// WWC2 (11732394_at) / RFU HLA-DPB1 (11760878_x_at) / Fold change /veh HLA-DPB1 (11760878_x_at) / RFU SPINT1 (11716480_a_at) / Fold change /veh SPINT1 (11716480_a_at) / RFU GAP43 (11754022_s_at) / Fold change /veh GAP43 (11754022_s_at) / RFU A4GNT (11735810_at) / Fold change /veh A4GNT (11735810_at) / RFU PRB3 (11715151_x_at) / Fold change /veh PRB3 (11715151_x_at) / RFU TUBB4B (11761932_at) / Fold change /veh TUBB4B (11761932_at) / RFU CAPN14 (11732068_a_at) / Fold change /veh CAPN14 (11732068_a_at) / RFU TMCC2 (11721928_a_at) / Fold change /veh TMCC2 (11721928_a_at) / RFU IRGQ (11745062_a_at) / Fold change /veh IRGQ (11745062_a_at) / RFU FAM174B (11720279_a_at) / Fold change /veh FAM174B (11720279_a_at) / RFU TMPRSS4 (11748680_a_at) / Fold change /veh TMPRSS4 (11748680_a_at) / RFU FAM212B (11763350_a_at) / Fold change /veh FAM212B (11763350_a_at) / RFU PLEKHG5 (11743358_a_at) / Fold change /veh PLEKHG5 (11743358_a_at) / RFU ZSCAN30 (11745921_a_at) / Fold change /veh ZSCAN30 (11745921_a_at) / RFU CMKLR1 (11741424_a_at) / Fold change /veh CMKLR1 (11741424_a_at) / RFU LOC101060620 /// MAPK8IP1 (11723275_at) / Fold change /veh LOC101060620 /// MAPK8IP1 (11723275_at) / RFU SPTSSB (11747773_x_at) / Fold change /veh SPTSSB (11747773_x_at) / RFU PRSS12 (11739890_at) / Fold change /veh PRSS12 (11739890_at) / RFU BIN1 (11741810_x_at) / Fold change /veh BIN1 (11741810_x_at) / RFU WNT11 (11732464_a_at) / Fold change /veh WNT11 (11732464_a_at) / RFU C10orf10 (11716521_a_at) / Fold change /veh C10orf10 (11716521_a_at) / RFU C5orf56 (11738089_at) / Fold change /veh C5orf56 (11738089_at) / RFU CYB561 (11721691_x_at) / Fold change /veh CYB561 (11721691_x_at) / RFU ANKRD19P (11752326_a_at) / Fold change /veh ANKRD19P (11752326_a_at) / RFU OR2T12 /// OR2T33 /// OR2T8 (11738714_s_at) / Fold change /veh OR2T12 /// OR2T33 /// OR2T8 (11738714_s_at) / RFU VCAN (11748164_a_at) / Fold change /veh VCAN (11748164_a_at) / RFU JSRP1 (11732532_at) / Fold change /veh JSRP1 (11732532_at) / RFU KRTAP10-11 (11738290_x_at) / Fold change /veh KRTAP10-11 (11738290_x_at) / RFU MYO3A (11730013_a_at) / Fold change /veh MYO3A (11730013_a_at) / RFU EBF3 (11725865_a_at) / Fold change /veh EBF3 (11725865_a_at) / RFU CAMK2N1 (11719241_x_at) / Fold change /veh CAMK2N1 (11719241_x_at) / RFU C5orf56 (11738088_a_at) / Fold change /veh C5orf56 (11738088_a_at) / RFU OLFML3 (11715873_a_at) / Fold change /veh OLFML3 (11715873_a_at) / RFU LOC100653217 /// NTM (11731650_a_at) / Fold change /veh LOC100653217 /// NTM (11731650_a_at) / RFU MAPK11 (11762145_a_at) / Fold change /veh MAPK11 (11762145_a_at) / RFU FIZ1 (11724087_x_at) / Fold change /veh FIZ1 (11724087_x_at) / RFU OASL (11726364_x_at) / Fold change /veh OASL (11726364_x_at) / RFU SOX15 (11748057_x_at) / Fold change /veh SOX15 (11748057_x_at) / RFU CD79A (11719716_a_at) / Fold change /veh CD79A (11719716_a_at) / RFU HIST1H1D (11736915_at) / Fold change /veh HIST1H1D (11736915_at) / RFU CASKIN2 (11723855_a_at) / Fold change /veh CASKIN2 (11723855_a_at) / RFU LOC730098 (11760151_x_at) / Fold change /veh LOC730098 (11760151_x_at) / RFU OR4N2 (11742367_at) / Fold change /veh OR4N2 (11742367_at) / RFU PRRT2 (11749266_a_at) / Fold change /veh PRRT2 (11749266_a_at) / RFU SNX32 (11753110_a_at) / Fold change /veh SNX32 (11753110_a_at) / RFU CDHR5 (11726645_a_at) / Fold change /veh CDHR5 (11726645_a_at) / RFU RCAN1 (11760418_a_at) / Fold change /veh RCAN1 (11760418_a_at) / RFU FAM167A (11723789_a_at) / Fold change /veh FAM167A (11723789_a_at) / RFU FAM26E (11764081_at) / Fold change /veh FAM26E (11764081_at) / RFU ISYNA1 (11749810_s_at) / Fold change /veh ISYNA1 (11749810_s_at) / RFU ACY1 (11761880_at) / Fold change /veh ACY1 (11761880_at) / RFU 11764098_at / Fold change /veh 11764098_at / RFU SAMD14 (11745864_x_at) / Fold change /veh SAMD14 (11745864_x_at) / RFU NPB (11741838_a_at) / Fold change /veh NPB (11741838_a_at) / RFU TMPRSS6 (11731388_a_at) / Fold change /veh TMPRSS6 (11731388_a_at) / RFU KRTAP10-2 (11738614_at) / Fold change /veh KRTAP10-2 (11738614_at) / RFU ARHGAP8 /// PRR5-ARHGAP8 (11727945_x_at) / Fold change /veh ARHGAP8 /// PRR5-ARHGAP8 (11727945_x_at) / RFU KRTAP5-7 /// NADSYN1 (11734609_at) / Fold change /veh KRTAP5-7 /// NADSYN1 (11734609_at) / RFU RASL12 (11751679_a_at) / Fold change /veh RASL12 (11751679_a_at) / RFU CDKN2B (11736163_a_at) / Fold change /veh CDKN2B (11736163_a_at) / RFU PRF1 (11729649_at) / Fold change /veh PRF1 (11729649_at) / RFU, ZNF638 /// ZNF638-IT1 / Fold change vs veh, ZNF638 /// ZNF638-IT1 / RFU, PANK3 / Fold change vs veh, PANK3 / RFU, SH3YL1 / Fold change vs veh, SH3YL1 / RFU, ZEB2 / Fold change vs veh, ZEB2 / RFU, NRIP1 / Fold change vs veh, NRIP1 / RFU, PTTG1IP / Fold change vs veh, PTTG1IP / RFU, CAPN2 / Fold change vs veh, CAPN2 / RFU, MED14 / Fold change vs veh, MED14 / RFU, SNORA58 / Fold change vs veh, SNORA58 / RFU, C1orf63 / Fold change vs veh, C1orf63 / RFU, LRRFIP1 / Fold change vs veh, LRRFIP1 / RFU, NDUFAF7 / Fold change vs veh, NDUFAF7 / RFU, SLC12A2 / Fold change vs veh, SLC12A2 / RFU, IBTK / Fold change vs veh, IBTK / RFU, ESF1 / Fold change vs veh, ESF1 / Fold change vs veh, TMEM50B / RFU, TAOK1 / Fold change vs veh, TAOK1 / RFU, ACBD3 / Fold change vs veh, ACBD3 / RFU, TMA16 / Fold change vs veh, TMA16 / RFU, RWDD3 / Fold change vs veh, RWDD3 / RFU, BCAT1 / Fold change vs veh, BCAT1 / RFU, EDEM3 / Fold change vs veh, EDEM3 / RFU, TMEM33 / Fold change vs veh, TMEM33 / RFU, WDR75 / Fold change vs veh, WDR75 / RFU, AHCTF1 / Fold change vs veh, AHCTF1 / RFU, TFRC / Fold change vs veh, TFRC / RFU, ZDHHC17 / Fold change vs veh, ZDHHC17 / RFU, NOM1 / Fold change vs veh, NOM1 / RFU, ARL8B / Fold change vs veh, ARL8B / RFU, ZBTB11 / Fold change vs veh, ZBTB11 / RFU, TAMM41 / Fold change vs veh, TAMM41 / RFU, KIAA1704 /// LOC100996395 / Fold change vs veh, KIAA1704 /// LOC100996395 / RFU, ING1 / Fold change vs veh, ING1 / RFU, TRMT61B / Fold change vs veh, TRMT61B / RFU, FUBP3 / Fold change vs veh, FUBP3 / RFU, TP53 / Fold change vs veh, TP53 / RFU, TNKS2 / Fold change vs veh, TNKS2 / RFU, ZFP14 / Fold change vs veh, ZFP14 / RFU, ACTR2 / Fold change vs veh, ACTR2 / RFU, PPP3R1 / Fold change vs veh, PPP3R1 / RFU, PIK3R1 / Fold change vs veh, PIK3R1 / RFU, HNRNPA1 / Fold change vs veh, HNRNPA1 / RFU, RNF170 / Fold change vs veh, RNF170 / RFU, ZNF28 / Fold change vs veh, ZNF28 / RFU, RNGTT / Fold change vs veh, RNGTT / RFU, OGT / Fold change vs veh, OGT / RFU, BRD1 / Fold change vs veh, BRD1 / RFU, MARS / Fold change vs veh, MARS / RFU, ZNF655 / Fold change vs veh, ZNF655 / RFU, FAHD1 / Fold change vs veh, FAHD1 / RFU, BDP1 / Fold change vs veh, BDP1 / RFU, LRRCC1 / Fold change vs veh, LRRCC1 / RFU, ARID1A / Fold change vs veh, ARID1A / RFU, ZNF146 / Fold change vs veh, ZNF146 / RFU, ZNF330 / Fold change vs veh, ZNF330 / RFU, GPN3 / Fold change vs veh, GPN3 / RFU, C9orf123 / Fold change vs veh, C9orf123 / RFU, N4BP2L2 / Fold change vs veh, N4BP2L2 / RFU, ARFIP1 / Fold change vs veh, ARFIP1 / RFU, FAM179B / Fold change vs veh, FAM179B / RFU, BCL10 / Fold change vs veh, BCL10 / RFU, UHRF1BP1L / Fold change vs veh, UHRF1BP1L / RFU, BET1 / Fold change vs veh, BET1 / RFU, CNOT2 / Fold change vs veh, CNOT2 / RFU, ZNF268 / Fold change vs veh, ZNF268 / Fold change vs veh, ZNF507 / RFU, DGCR2 / Fold change vs veh, DGCR2 / RFU, WDSUB1 / Fold change vs veh, WDSUB1 / Fold change vs veh, HSP90B1 /// MIR3652 / RFU, ADSS / Fold change vs veh, ADSS / RFU, GK / Fold change vs veh, GK / RFU, ZNF148 / Fold change vs veh, ZNF148 / RFU, TAF9 / Fold change vs veh, TAF9 / RFU, SLC1A5 / Fold change vs veh, SLC1A5 / RFU, SLMO2 / Fold change vs veh, SLMO2 / RFU, ABCC4 / Fold change vs veh, ABCC4 / RFU, LOC101060439 /// RAP1B / Fold change vs veh, LOC101060439 /// RAP1B / RFU, RFX7 / Fold change vs veh, RFX7 / RFU, GTPBP10 / Fold change vs veh, GTPBP10 / RFU, CNEP1R1 / Fold change vs veh, CNEP1R1 / RFU, BIVM-ERCC5 /// ERCC5 / Fold change vs veh, BIVM-ERCC5 /// ERCC5 / RFU, ILF3 / Fold change vs veh, ILF3 / RFU 11762660_at / Fold change /veh 11762660_at / RFU VCAN (11757783_s_at) / Fold change /veh VCAN (11757783_s_at) / RFU DDX43 (11728927_at) / Fold change /veh DDX43 (11728927_at) / RFU KRT8 (11758188_x_at) / Fold change /veh KRT8 (11758188_x_at) / RFU NKD1 (11759106_at) / Fold change /veh NKD1 (11759106_at) / RFU SRD5A1 (11742802_a_at) / Fold change /veh SRD5A1 (11742802_a_at) / RFU TPSAB1 /// TPSB2 (11721975_s_at) / Fold change /veh TPSAB1 /// TPSB2 (11721975_s_at) / RFU GSTM3 (11746129_a_at) / Fold change /veh GSTM3 (11746129_a_at) / RFU IL23R (11737362_x_at) / Fold change /veh IL23R (11737362_x_at) / RFU TMEM51 (11727254_a_at) / Fold change /veh TMEM51 (11727254_a_at) / RFU PIWIL2 (11732686_x_at) / Fold change /veh PIWIL2 (11732686_x_at) / RFU ORM1 (11744905_x_at) / Fold change /veh ORM1 (11744905_x_at) / RFU CCDC152 (11743942_at) / Fold change /veh CCDC152 (11743942_at) / RFU ECM1 (11717891_a_at) / Fold change /veh ECM1 (11717891_a_at) / RFU IL23R (11748794_a_at) / Fold change /veh IL23R (11748794_a_at) / RFU TNFAIP8L3 (11732012_x_at) / Fold change /veh TNFAIP8L3 (11732012_x_at) / RFU MBOAT4 (11741988_at) / Fold change /veh MBOAT4 (11741988_at) / RFU 11764193_at / Fold change /veh 11764193_at / RFU TMEM53 (11763286_at) / Fold change /veh TMEM53 (11763286_at) / RFU MAGEB2 (11727129_at) / Fold change /veh MAGEB2 (11727129_at) / RFU TMEM200A (11744735_a_at) / Fold change /veh TMEM200A (11744735_a_at) / RFU CCDC152 (11751479_a_at) / Fold change /veh CCDC152 (11751479_a_at) / RFU FAM211A (11726209_a_at) / Fold change /veh FAM211A (11726209_a_at) / RFU RGS16 (11746705_a_at) / Fold change /veh RGS16 (11746705_a_at) / RFU VCAN (11755009_s_at) / Fold change /veh VCAN (11755009_s_at) / RFU RHOB (11743442_s_at) / Fold change /veh RHOB (11743442_s_at) / RFU RGS16 (11720943_a_at) / Fold change /veh RGS16 (11720943_a_at) / RFU RGS16 (11720944_at) / Fold change /veh RGS16 (11720944_at) / RFU, VPS4B / Fold change vs veh, VPS4B / RFU, CREB1 / Fold change vs veh, CREB1 / RFU, DNAJC13 / Fold change vs veh, DNAJC13 / RFU, GNAQ / Fold change vs veh, GNAQ / RFU, CDK5R1 / Fold change vs veh, CDK5R1 / RFU, ZRANB3 / Fold change vs veh, ZRANB3 / RFU, CUL4A / Fold change vs veh, CUL4A / RFU, CCNY / Fold change vs veh, CCNY / RFU, UFL1 / Fold change vs veh, UFL1 / RFU, COG3 / Fold change vs veh, COG3 / RFU, DIAPH2 / Fold change vs veh, DIAPH2 / RFU, SKA2 / Fold change vs veh, SKA2 / RFU, AFF3 / Fold change vs veh, AFF3 / RFU, LMF1 / Fold change vs veh, LMF1 / RFU, IPO11 / Fold change vs veh, IPO11 / RFU, DFFB / Fold change vs veh, DFFB / RFU, FOXP1 / Fold change vs veh, FOXP1 / RFU, CARD8 / Fold change vs veh, CARD8 / RFU, STRN3 / Fold change vs veh, STRN3 / RFU, ADK / Fold change vs veh, ADK / RFU, RASSF2 / Fold change vs veh, RASSF2 / RFU, WIPF1 / Fold change vs veh, WIPF1 / RFU, LARP1B / Fold change vs veh, LARP1B / RFU, RASA1 / Fold change vs veh, RASA1 / RFU, RB1 / Fold change vs veh, RB1 / RFU, PPFIA1 / Fold change vs veh, PPFIA1 / RFU, MAT2A / Fold change vs veh, MAT2A / RFU, CCT5 / Fold change vs veh, CCT5 / RFU, WDR92 / Fold change vs veh, WDR92 / RFU, CUX1 / Fold change vs veh, CUX1 / RFU, TTC7A / Fold change vs veh, TTC7A / RFU, TMEM135 / Fold change vs veh, TMEM135 / RFU, DEPTOR / Fold change vs veh, DEPTOR / RFU, CPM / Fold change vs veh, CPM / RFU, DNAJB6 / Fold change vs veh, DNAJB6 / RFU, CACNA2D3 / Fold change vs veh, CACNA2D3 / RFU, DTX4 / Fold change vs veh, DTX4 / RFU, TFCP2 / Fold change vs veh, TFCP2 / RFU, GMCL1 /// GMCL1P1 / Fold change vs veh, GMCL1 /// GMCL1P1 / RFU, AEBP2 / Fold change vs veh, AEBP2 / RFU, SNHG1 /// SNORD22 /// SNORD25 /// SNORD26 /// SNORD27 /// SNORD28 /// SNORD29 /// SNORD31 / Fold change vs veh, SNHG1 /// SNORD22 /// SNORD25 /// SNORD26 /// SNORD27 /// SNORD28 /// SNORD29 /// SNORD31 / Fold change (Aza/veh), C12orf56 (ProbeSet 11735607_a_at) / Fold change (ACY-1035/veh), C12orf56 (ProbeSet 11735607_a_at) / Fold change (Aza/veh), FGFR1OP (ProbeSet 11751329_s_at) / Fold change (ACY-1035/veh), FGFR1OP (ProbeSet 11751329_s_at) / Fold change (Aza/veh), VPS36 (ProbeSet 11739960_a_at) / Fold change (ACY-1035/veh), VPS36 (ProbeSet 11739960_a_at) / RFU SYPL1 (11715823_x_at) / Fold change /veh SYPL1 (11715823_x_at) / RFU IGFBP7 (11715501_s_at) / Fold change /veh IGFBP7 (11715501_s_at) / RFU REEP3 (11722064_at) / Fold change /veh REEP3 (11722064_at) / RFU IGLL1 (11728026_x_at) / Fold change /veh IGLL1 (11728026_x_at): dose or concentration left out as unconfirmed
Conditions: ProbeSet 11726661_s_at; LIST B

## Nc1ccc(-c2cccs2)cc1NC(=O)c1ccc2c(c1)cc(C1CC1)n2CCN1CCOCC1 [ACY-1035]
  RFU, GPN3: 242.51 RFU
